The values that follow come from patent US10807985B2 (Blueprint Medicines Corporation, priority 2013, dated 2020).

“Also recorded” adds a separate entry of the source.

One data set has as its target D816V KIT (Homo sapiens (Human), UniProt P10721, D816V). The experiment in a line: KIT D816V assay at Km (Caliper electrophoretic mobility shift). The following applies: biochemical, 15 uM ATP (Km), 90 minutes at 25 C; read-out: INH KIT D816V.
The target in another data set is PDGFRA D842V (Homo sapiens (Human), UniProt P16234, D842V). Description: PDGFRA D842V assay at Km (Caliper electrophoretic mobility shift). As to conditions: biochemical, 15 uM ATP (Km), 90 minutes at 25 C; read-out: INH PDFGRA D842V.
For data set [1], the target named is KIT D816V kinase activity (KIT autophosphorylation at tyrosine 719) in HMC1.2 cells (Homo sapiens (Human), UniProt P10721, D816V/V560G). The experiment in a line: HMC1.2 autophosphorylation assay (phospho-Y719 c-KIT AlphaLISA). The format is cell-based. The following applies: HMC1.2 mast cell leukemia cell line (KIT V560G, D816V), 90 minutes compound; read-out: INH-KIT-PHOS-HMC1.2.

Another data set relates to P815 tumor cells. The experiment in a line: P815 mastocytoma xenograft model, tumor growth. The following applies: P815 xenograft in female BALB/c nude mice; 3, 10, 30, 100 mg/kg p.o. QD × 10. The format is in vivo, mouse. Here is the method: Compound 46 and Dasatinib were evaluated in a P815 mastocytoma xenograft model. P815 tumor cells (ATCC, Manassas, Va., cat # ATCC® TIB-64) were maintained in vitro as a suspension and monolayer culture in RPMI1640 medium supplemented with 10% fetal calf serum at 37° C. in an atmosphere of 5% CO2 in air. The tumor cells were sub-cultured twice weekly by trypsin-EDTA treatment. The cells growing in an exponential growth phase were harvested and counted for tumor inoculation.
Tumor sizes were measured every other day in two dimensions using a caliper, and the volume was expressed in mm^3 using the formula: V=0.5 a×b^2 where a and b were the long and short diameters of the tumor, respectively. […] T-C was calculated with T as the median time (in days) required for the treatment group tumors to reach a predetermined size (e.g., 1000 mm^3), and C as the median time (in days) for the control group tumors to reach the same size. […]
TGI was calculated for each group using the formula: TGI (%)=[1−(Ti−T0)/(Vi−V0)]×100; Ti is the average tumor volume of a treatment group on a given day, T0 is the average tumor volume of the treatment group on the day of treatment start, Vi is the average tumor volume of the vehicle control group on the same day with Ti, and V0 is the average tumor volume of the vehicle group on the day of treatment start. Tumor weight was measured at the endpoint. […]

The conditions of data set [2]: mouse, in vivo.
The nature of data set [3]: Body weight changes in the tumor bearing mice (P815 xenograft).

Sequence of KIT D816V kinase activity (KIT autophosphorylation at tyrosine 719) in HMC1.2 cells (P10721 26-976 V560G/D816V): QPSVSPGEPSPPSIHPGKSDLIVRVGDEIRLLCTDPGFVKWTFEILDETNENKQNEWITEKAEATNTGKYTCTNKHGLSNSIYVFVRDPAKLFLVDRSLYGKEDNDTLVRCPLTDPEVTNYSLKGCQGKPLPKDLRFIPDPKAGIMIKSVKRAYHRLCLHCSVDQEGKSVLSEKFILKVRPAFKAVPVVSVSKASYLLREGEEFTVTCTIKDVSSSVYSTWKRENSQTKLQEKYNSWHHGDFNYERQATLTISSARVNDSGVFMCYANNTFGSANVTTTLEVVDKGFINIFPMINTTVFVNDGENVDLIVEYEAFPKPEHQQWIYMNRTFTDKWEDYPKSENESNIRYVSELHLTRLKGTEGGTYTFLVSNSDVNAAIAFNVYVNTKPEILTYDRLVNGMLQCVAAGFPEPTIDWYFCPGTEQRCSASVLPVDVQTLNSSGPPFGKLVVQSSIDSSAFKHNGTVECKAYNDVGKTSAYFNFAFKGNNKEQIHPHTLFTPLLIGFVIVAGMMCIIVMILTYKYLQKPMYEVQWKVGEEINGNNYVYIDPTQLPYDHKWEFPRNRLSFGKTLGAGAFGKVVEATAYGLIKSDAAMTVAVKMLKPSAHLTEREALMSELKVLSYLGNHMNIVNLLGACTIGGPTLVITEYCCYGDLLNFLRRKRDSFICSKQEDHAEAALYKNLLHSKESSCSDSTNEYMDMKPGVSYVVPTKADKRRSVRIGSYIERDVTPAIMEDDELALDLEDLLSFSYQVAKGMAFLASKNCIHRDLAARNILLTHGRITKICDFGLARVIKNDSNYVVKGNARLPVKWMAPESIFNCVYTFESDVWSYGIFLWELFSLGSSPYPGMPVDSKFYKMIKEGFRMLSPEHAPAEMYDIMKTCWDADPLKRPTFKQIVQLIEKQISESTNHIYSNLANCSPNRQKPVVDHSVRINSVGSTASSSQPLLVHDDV
Sequence of PDGFRA D842V (P16234 24-1089 D842V): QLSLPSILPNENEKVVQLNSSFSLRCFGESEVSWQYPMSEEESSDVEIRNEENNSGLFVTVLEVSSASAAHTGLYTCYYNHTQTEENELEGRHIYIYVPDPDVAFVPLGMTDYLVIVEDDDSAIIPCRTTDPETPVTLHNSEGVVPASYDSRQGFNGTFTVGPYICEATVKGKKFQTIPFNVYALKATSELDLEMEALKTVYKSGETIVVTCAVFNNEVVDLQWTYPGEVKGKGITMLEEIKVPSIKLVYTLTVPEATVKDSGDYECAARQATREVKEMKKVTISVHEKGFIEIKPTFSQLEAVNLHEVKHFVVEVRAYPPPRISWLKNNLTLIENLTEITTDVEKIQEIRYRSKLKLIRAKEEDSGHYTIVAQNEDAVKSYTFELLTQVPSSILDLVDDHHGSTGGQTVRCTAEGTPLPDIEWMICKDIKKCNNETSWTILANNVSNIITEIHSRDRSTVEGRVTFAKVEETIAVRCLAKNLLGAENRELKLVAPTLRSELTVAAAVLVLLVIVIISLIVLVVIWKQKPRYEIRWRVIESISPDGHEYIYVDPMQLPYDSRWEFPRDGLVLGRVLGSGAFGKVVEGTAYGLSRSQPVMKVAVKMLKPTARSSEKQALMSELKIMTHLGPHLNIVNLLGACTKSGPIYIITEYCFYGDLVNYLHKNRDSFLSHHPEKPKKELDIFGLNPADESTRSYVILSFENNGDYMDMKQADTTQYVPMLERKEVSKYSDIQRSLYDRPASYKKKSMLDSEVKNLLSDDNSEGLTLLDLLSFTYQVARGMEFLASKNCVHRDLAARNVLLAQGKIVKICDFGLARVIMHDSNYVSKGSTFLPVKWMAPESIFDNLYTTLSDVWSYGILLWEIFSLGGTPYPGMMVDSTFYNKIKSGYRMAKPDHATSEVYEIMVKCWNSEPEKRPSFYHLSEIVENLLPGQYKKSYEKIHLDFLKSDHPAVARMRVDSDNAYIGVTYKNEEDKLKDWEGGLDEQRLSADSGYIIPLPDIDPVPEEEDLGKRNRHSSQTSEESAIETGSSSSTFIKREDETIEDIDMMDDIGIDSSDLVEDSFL
Sequence of D816V KIT (P10721 26-976 D816V): as the sequence (P10721 26-976 V560G/D816V) above, with G535V counted along it

With `Cn1cc(-c2cc3c(N4CCN(c5ncc([C@@](C)(O)c6ccc(F)cc6)cn5)CC4)ncnn3c2)cn1` [Compound 46], the IC50 was less than 1 nM on D816V KIT, less than 1 nM at PDGFRA D842V and less than 50 nM in data set [1]. The tumor growth inhibition result with P815 tumor cells is “effective in inhibiting tumor growth; also recorded: observable antitumor activity”. The tolerability result in data set [2] is recorded as “well tolerated”. In data set [3] (Compound 46 3-100 mg/kg p.o. QD × 10, even at the higher doses), the body weight change entry is reported as “less than 5%”.

As for `Cc1nc(Nc2ncc(C(=O)Nc3c(C)cccc3Cl)s2)cc(N2CCN(CCO)CC2)n1` [Dasatinib, reference compound], the body weight loss result in data set [3] (Dasatinib 25 mg/kg p.o. BID × 10) is listed as “more than 5%”.

`C[C@](N)(c1ccc(F)cc1)c1cnc(N2CCN(c3ncnn4cc(-c5ccc(F)cc5)cc34)CC2)nc1` [Compound 62]: the IC50 lay within 1.01 to 10 nM on D816V KIT, 1.01 to 10 nM at PDGFRA D842V and 50 to 100 nM in data set [1].

Regarding `Cn1cc(-c2cc3c(N4CCN(c5ncc([C@](C)(N)c6ccc(F)cc6F)cn5)CC4)ncnn3c2)cn1` [Compound 86], the IC50 at D816V KIT is less than 1 nM; at PDGFRA D842V, less than 1 nM; in data set [1] it was less than 50 nM.

Consider `C[C@@](O)(c1ccc(F)cc1)c1cnc(N2CCN(c3ncnn4cc(-c5cn[nH]c5)cc34)CC2)nc1` [Compound 29], for which the IC50 is 1.01 to 10 nM at D816V KIT, 1.01 to 10 nM on PDGFRA D842V and 50 to 100 nM in data set [1].

As for `Cn1cc(-c2cc3c(N4CCN(c5ncc(Sc6ccccc6F)cn5)[C@H](CO)C4)ncnn3c2)cn1` [Compound 97], the IC50 on D816V KIT is 1.01 to 10 nM; at PDGFRA D842V, 1.01 to 10 nM; in data set [1], less than 50 nM.

In the case of `Cn1cc(-c2cc3c(N4CCN(c5ncc([C@](O)(CF)c6ccc(F)cc6)cn5)CC4)ncnn3c2)cn1` [Compound 96], the IC50 was less than 1 nM at D816V KIT, less than 1 nM at PDGFRA D842V and less than 50 nM in data set [1].

For `C[C@@H]1CN(c2ncnn3cc(-c4cnn(C)c4)cc23)CCN1c1ncc([C@@](C)(O)c2ccc(F)cc2)cn1` [Compound 77], the IC50 on D816V KIT is 1.01 to 10 nM; at PDGFRA D842V, less than 1 nM; in data set [1], less than 50 nM.

Regarding `Cn1cc(-c2cc3c(N4CCN(c5ncc([C@@](N)(c6ccc(F)cc6)C(F)(F)F)cn5)CC4)ncnn3c2)cn1` [Compound 122], the IC50 at D816V KIT was 1.01 to 10 nM; on PDGFRA D842V, 1.01 to 10 nM; in data set [1], less than 50 nM.

Turning to `Cn1cc(-c2cc3c(N4CCN(c5ncc([C@@](C)(O)c6c(F)cc(F)cc6F)cn5)CC4)ncnn3c2)cn1` [Compound 116], the IC50 on D816V KIT was less than 1 nM; at PDGFRA D842V, less than 1 nM; in data set [1], less than 50 nM.
